Tested on: Five broadleaf species (IPOHE, CHEAL, EPHHL, ABUTH and CASOB)
Experiment: Greenhouse study of glyphosate salt solutions in mixture with a second herbicide (Colby's equation)
Assay type: in vivo
Settings: for % Actual Control: 420 gae/ha glyphosate and/or 140 gae/ha second herbicide, 3 days after application, averaged over the 5 species; for Herbicide interaction with 2,4-D DMA and triclopyr TEA (actual versus expected control): Colby's equation
Procedure: In a further greenhouse study, the efficacy of a glyphosate DMA salt solution in mixture with DMA 4 (456 g/l 2,4-D acid equivalent in the form of the DMA salt) and Garlon 3A (360 g/l triclopyr acid equivalent in the form of the triethylamine [TEA] salt) respectively was compared with the efficacy of a glyphosate K salt solution in the same mixtures. The glyphosate salt solutions were prepared by diluting the glyphosate DMA salt concentrate and glyphosate K salt concentrate with the required amount of water to prepare solutions containing 480 g/l glyphosate acid equivalent each. Five broadleaf species (IPOHE, CHEAL, EPHHL, ABUTH and CASOB) were sprayed with the individual formulations as well as the mixtures listed in Table 6. The herbicide interactions were analyzed using Colby's equation. This equation for the expected mixture response is: Y1+2=Y1+Y2−(Y1Y2)100 where Y1+2 is the expected mixture response and y1 and y2 are the percent control values of the individual herbicides.

CNC.O=C(O)COc1ccc(Cl)cc1Cl [2,4-D DMA salt]
% Actual Control: 47.0%

CNC.O=C(O)CNCP(=O)(O)O [glyphosate DMA salt]
% Actual Control: 35.7% | Herbicide interaction with 2,4-D DMA and triclopyr TEA (actual versus expected control): no antagonism

O=C(O)CNCP(=O)([O-])O.[K+] [glyphosate K salt]
% Actual Control: 35.7% | Herbicide interaction with 2,4-D DMA and triclopyr TEA (actual versus expected control): antagonistic

CCN(CC)CC.O=C(O)COc1nc(Cl)c(Cl)cc1Cl [triclopyr TEA salt]
% Actual Control: 55.0%

From patent US7316990B2, “High-strength, low viscosity herbicidal formulations of glyphosate” (Dow AgroSciences LLC, priority 2003, dated 2008)
